# Measured values reported in US10688110B2 (NanGenex Nanotechnology Incorporated, priority 2015, dated 2020).
# Like-named read-outs stand apart in the source and are kept apart here.
# Legend:
# PAMPA permeability = type: in vitro ADME; settings: pH 7, simulated saliva condition
# [1] = cited from earlier work
# [2] = healthy subjects, within the clinical dose range; cited from earlier work
# [3] = cited from earlier work; remark: listed apart in the source
# [4] = single oral dose of radiolabeled drug
compound,measurement,setting,value
"Cc1ccc(-c2cc(C(F)(F)F)nn2-c2ccc(S(N)(=O)=O)cc2)cc1 [Celecoxib, 4-[5-(4-methylphenyl)-3-(trifluoromethyl)-1H-pyrazol-1-yl] benzenesulfonamide]",Papp,PAMPA permeability,0.3 ×10⁻⁶ cm/s
same,time of peak plasma levels,[1]; after an oral dose,approximately 3 hrs
same,effective half-life,[1]; fasted conditions,approximately 11 hours
same,dose proportionality of Cmax and AUC,"[1]; fasting conditions, up to 200 mg BID",roughly dose-proportional
same,"overall systemic exposure (AUC), intact capsule vs capsule contents sprinkled on applesauce",[1]; healthy adult volunteers,equivalent
same,apparent plasma clearance (CL/F),"[1]; human, in vivo",about 500 mL/min
same,unchanged drug recovered in the urine and feces,"[1]; human, in vivo",< 3%
same,steady-state conditions reached,[1]; multiple dosing,≤ 5 days
same,time of peak plasma levels,"[1]; single dose of 200 mg of current formulation, oral",3 h
same,onset of pain relief,[1]; single dose of 200 mg of current formulation,≥ 1 h
same,dose excreted in the feces,[1]; [4],approximately 57%
same,dose excreted into the urine,[1]; [4],27%
same,protein bound,[2],~97%
same,solubility in methanol and chloroform,[3],soluble
same,solubility in water,[3],insoluble
